Test results as given in ChEMBL document CHEMBL5725498, “ROR modulators and their uses” (2017).

Key:
[1] = TH17 Cytokine Inhibition ELISA: Human CD4+ T cells were differentiated to TH17 cells as described in the presence or absence of various concentrations of compounds in a final concentration of 0.1% DMSO in TexMACS medium. Supernatants were collected and stored at −20° C. until they were to be assayed for IL-17A, IL-17F, IL-17AF, IL-21 and/or IL-22 levels as determined by Ready-Set-Go ELISA kits (eBioscience) as per manufacturer's instructions. Endpoint absorbance was read at 450 nm and 570 nm according to manufacturer's instructions (eBioscience) using a microplate reader (Perkin Elmer). The percentage of cytokine inhibition was calculated with reference to DMSO treated cells and the IC50s were determined by GraphPad Prism software and presented in the table below.
[2] = biological target: T1, Nuclear receptor ROR-gamma (Homo sapiens, UniProt P51449); assay: RORgamma LBD Binding Assay: Compound binding to the human RORγ LBD was assessed using the Human RORγ Assay System (INDIGO Biosciences Inc.) as per manufacturer's instructions. Binding to the RORγ LBD was assessed using gradient concentrations of the indicated compounds in a final concentration of 0.5% DMSO, where IC50s were generated using Graphpad Prism.
T1 sequence (P51449 whole entry): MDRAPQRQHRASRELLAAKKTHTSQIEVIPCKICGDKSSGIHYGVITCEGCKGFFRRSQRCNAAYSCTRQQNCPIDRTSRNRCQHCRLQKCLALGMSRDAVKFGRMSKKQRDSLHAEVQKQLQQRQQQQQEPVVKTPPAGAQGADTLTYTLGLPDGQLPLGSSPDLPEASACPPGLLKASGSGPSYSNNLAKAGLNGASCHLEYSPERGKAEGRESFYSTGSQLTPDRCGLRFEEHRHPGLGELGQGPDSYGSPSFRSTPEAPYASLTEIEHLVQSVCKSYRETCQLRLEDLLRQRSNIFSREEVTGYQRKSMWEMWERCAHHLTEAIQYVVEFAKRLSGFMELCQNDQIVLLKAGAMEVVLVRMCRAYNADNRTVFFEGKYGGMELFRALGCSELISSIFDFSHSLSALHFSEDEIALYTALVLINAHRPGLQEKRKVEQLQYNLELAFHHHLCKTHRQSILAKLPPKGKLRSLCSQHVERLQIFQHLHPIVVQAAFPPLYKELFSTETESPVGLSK

Structure (SMILES): OC(c1ccc(CBr)cc1)(C(F)(F)F)C(F)(F)F
- IC50 [1]: < 10 µM

Structure (SMILES): CN(C)C(=O)c1ccc2c(ccc(=O)n2Cc2ccc(C(O)(C(F)(F)F)C(F)(F)F)cc2)c1
- IC50 [1]: < 10 µM

Structure (SMILES): CN(C)C(=O)c1ccc2c(c1)CCC(=O)N2Cc1ccc(C(O)(C(F)(F)F)C(F)(F)F)cc1
- IC50 [2]: < 10 µM
- IC50 [1]: > 10 µM
